Data on four compounds can be found in patent publication US20050107465A1, “Composition for treating inflammatory bowel disease” (priority 2003, published 2005).

For the experiment, the system named is MAdCAM-1 expression in murine colon microvessel endothelial cells. As to the kind of experiment: Western blot assay for TNF-α induced MAdCAM-1 expression in murine colon microvessel endothelial cells. It counts as cell-based. The following applies: EC monolayer pre-treated with test agent, then TNF-α 20 ng/ml for 24 hours, western blot densitometry (FIG. 2). The method, then: A line of murine colon microvessel endothelial cells was developed for use as an in vitro model of colon inflammatory adhesion molecule expression in IBD. Immortomouse mice were used as tissue sources for these studies. Colon segments were sterilely removed and treated with collagenase (0.2%, 45 min) and cultured in d-valine MEM with IFN-g (10 U/ml) with 2% FCS and non-essential amino acids and vitamins. These cells were cultured on gelatin and were maintained at 37 C. for 24 hours prior to exposure to treatment protocols. In treatments, cells cultured on 24 well plates were incubated in either medium, or medium containing antioxidant or antioxidant admixture ± vitamin E TPGS for 24-48 hour prior to the administration of inflammatory cytokine (TNF-α, 20 ng/ml). At 24 hours combined treatments, monolayers were evaluated for MAdCAM-1 by standard western blotting.
EC cells developed as above were cultured in 2% fetal calf serum, with 50 U/ml interferon-gamma, d-valine supplemented MEM, 1% penicillin/streptomycin and 1 % non-essential amino acids using tissue culture were pre-coated with 1 % gelatin. Adhesion molecule expression was measured in these cells by switching cells to medium without interferon, culturing for 48 hours and then pre-treating cells with test agents for 24 hours prior to exposure to TNF-α for an additional 24 hours. MAdCAM-1 expression was measured using standard western blotting procedures described above. One hundred μg of protein was loaded per lane in non-denaturing sample buffer (w/o mercaptoethanol) and electrophoresed, and subsequently transferred to nitrocellulose. After blocking (5% milk, 2 h), blots were incubated in MAdCAM-1 antibody (10 ug/ml) for 12 hours and reacted by enhanced chemiluminescence (ECL). Gels were analyzed by densitometric analysis by scanning x-ray replicas of the exposed blots.
A murine colon microvessel endothelial cell line (EC monolayer) was developed as described above. Cytokine induced MAdCAM-1 expression in these cells was determined via Western Blot assay described above. An initial experiment evaluated the ability of gamma-tocopherol alone or formulated with vitamin E TPGS to block cytokine induction of MAdCAM-1 in this cell line is shown in FIG. 2.

Entries after “also recorded” stand apart in the source; their conditions may differ.

As for vitamin E TPGS, the “effect on cytokine induced MAdCAM-1 expression (in words)” value (shortened to “effect”) is on record as “relatively small effect; also recorded: only a slight decrease”. In addition, the “effect” value (listed as vitamin E TGPS) was “relatively minor effect”.
As for `Cc1c(O)cc2c(c1C)O[C@](C)(CCC[C@H](C)CCC[C@H](C)CCCC(C)C)CC2` [gamma-tocopherol], the “decrease in MAdCAM-1 expression” value is on record as “at least 50%” and the “effect” value was “significantly decrease”.
Turning to `COC1=C(OC)C(=O)C(C/C=C(\C)CC/C=C(\C)CC/C=C(\C)CC/C=C(\C)CC/C=C(\C)CC/C=C(\C)CC/C=C(\C)CC/C=C(\C)CC/C=C(\C)CCC=C(C)C)=C(C)C1=O` [Coenzyme Q10], the “effect” value was “less beneficial than alpha-tocopherol therapy”. For the same compound, the “effect” value (listed as coenzyme Q10) is listed as “relatively minor effect”.
Take `Cc1c(C)c2c(c(C)c1O)CC[C@@](C)(CCC[C@H](C)CCC[C@H](C)CCCC(C)C)O2` [alpha-tocopherol]: the “effect” value was “relatively minor effect; also recorded: significantly less effective than gamma-tocopherol alone”.
